From patent US20090143375A1, “Tricyclic Lactam Derivatives, Their Manufacture and Use as Pharmaceutical Agents” (F. HOFFMANN-LA ROCHE AG, priority 2005, published 2009) come the findings set out here.

The first test has as its target T1, Aurora A kinase (Homo sapiens, UniProt O14965).
T1 sequence (O14965 1-403): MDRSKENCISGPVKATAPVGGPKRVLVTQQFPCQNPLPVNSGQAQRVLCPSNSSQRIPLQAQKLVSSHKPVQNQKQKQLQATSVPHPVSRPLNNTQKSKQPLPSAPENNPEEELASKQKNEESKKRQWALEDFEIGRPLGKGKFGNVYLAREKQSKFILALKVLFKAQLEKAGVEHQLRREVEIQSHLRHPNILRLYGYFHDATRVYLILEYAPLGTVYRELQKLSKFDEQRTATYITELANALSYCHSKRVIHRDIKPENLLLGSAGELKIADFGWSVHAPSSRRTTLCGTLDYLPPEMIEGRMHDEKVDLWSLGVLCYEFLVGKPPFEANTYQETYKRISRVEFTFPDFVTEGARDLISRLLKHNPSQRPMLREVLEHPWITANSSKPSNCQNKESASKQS
Briefly: IC50 determination for inhibitors of Aurora A kinase (ELISA, GST-Histone H3 substrate). It counts as biochemical. To be noted: mutant Aur A kinase, 30 μM ATP, 40 minutes; read-out: IC50 Aurora A kinase inhibition. How it is done: IC50 Determination for Inhibitors of Aurora A Kinase Assay Principle
Aurora A is a serine threonine kinase involved in spindle assembly and chromosome segregation.
The assay is a typically ELISA-type assay where substrate (GST-Histone H3) is coupled to the assay-plate and is phosphorylated by the kinase. Phosphorylation is detected by a mouse anti-Phosphopeptid mAb and an HRP-labeled anti-mouse pAb. The assay is validated for IC50-determination.
Kinase activities were measured by Enzyme-Linked Immunosorbent Assay (ELISA): Maxisorp 384-well plates (Nunc) were coated with recombinant fusion protein comprising residues 1-15 of HistoneH3 fused to the N-terminus of Glutathione-S-Transferase. Plates were then blocked with a solution of 1 mg/mL I-block (Tropix cat# T2015—highly purified form of casein) in phosphate-buffered saline. […] After washing, substrate phosphorylation was detected by addition of anti-phospho-Histone H3 (Ser 10) 6G3 mAb (Cell Signaling cat #9706) and sheep anti-mouse pAb-HRP (Amersham cat# NA931V), followed by colorimetric development with TMB (3,3′,5,5′-tetramethylbenzidine from Kirkegaard & Perry Laboratories). After readout of the absorbance, IC50 values were calculated using a non-linear curve fit (XLfit software (ID Business Solution Ltd., Guilford, Surrey, UK))
As to `COCCN1C(=O)C(C)(C)c2cc3nc(-c4cc(C)[nH]n4)[nH]c3cc21` [Example 1, 5-(2-Methoxy-ethyl)-7,7-dimethyl-2-(5-methyl-1H-pyrazol-3-yl)-5,7-dihydro-3H-imidazo[4,5-f]indol-6-one], the IC50 is 80 nM.
With `Cc1cc(-c2nc3cc4c(cc3[nH]2)N(CC(=O)Nc2ccc(F)cc2)C(=O)C4(C)C)n[nH]1` [Example 10, 2-[7,7-Dimethyl-2-(5-methyl-1H-pyrazol-3-yl)-6-oxo-6,7-dihydro-3H-imidazo[4,5-f]indol-5-yl]-N-(4-fluoro-phenyl)-acetamide], the IC50 was 40 nM.

In the next test the test system is HCT 116 cells. Briefly: CellTiter-Glo assay in HCT 116 cells (antiproliferative activity). It counts as cell-based. Particulars: 120 h, HCT 116 cells (human colon carcinoma), 5 days incubation. The method, then:
The CellTiter-Glo™ Luminescent Cell Viability Assay (Promega) is a homogeneous method of determining the number of viable cells in culture based on quantitation of the ATP present, which signals the presence of metabolically active cells.
HCT 116 cells (human colon carcinoma, ATCC-No. CCl-247) were cultivated in RPMI 1640 medium with GlutaMAX™ I (Invitrogen, Cat-No. 61870-010), 2.5% Fetal Calf Serum (FCS, Sigma Cat-No. F4135 (FBS)); 100 Units/ml penicillin/100 μg/ml streptomycin (=Pen/Strep from Invitrogen Cat. No. 15140). For the assay the cells were seeded in 384 well plates, 1000 cells per well, in the same medium. The next day the test compounds were added in various concentrations ranging from 30 μM to 0.0015 μM (10 concentrations, 1:3 diluted). After 5 days the CellTiter-Glo™ assay was done according to the instructions of the manufacturer (CellTiter-Glo™ Luminescent Cell Viability Assay, from Promega). In brief: the cell-plate was equilibrated to room temperature for approximately 30 minutes and than the CellTiter-Glo™ reagent was added. The contents were carefully mixed for 15 minutes to induce cell lysis. After 45 minutes the luminescent signal was measured in Victor 2, (scanning multiwell spectrophotometer, Wallac).
1st. day: • Medium: RPMI 1640 with GlutaMAX™ I (Invitrogen, Cat-Nr. 61870), 5% FCS (Sigma Cat.-No. F4135), Pen/Strep (Invitrogen, Cat No. 15140). • HCT116 (ATCC-No. CCl-247): 1000 cells in 60 μl per well of 384 well plate (Greiner 781098, μClear-plate white) • After seeding incubate plates 24 h at 37° C., 5% CO2 2nd. Day: Induction (Treatment with Compounds, 10 Concentrations):
In order to achieve a final concentration of 30 μM as highest concentration 3.5 μl of 10 mM compound stock solution were added directly to 163 μl media. Then step e) of the dilution procedure described below, was followed.
In order to achieve the second highest to the lowest concentrations, a serial dilution with dilution steps of 1:3 was followed according to the procedure (a-e) as described here below: • a) for the second highest concentration add 10 μl of 10 mM stock solution of compound to 20 μl dimethylsulfoxide (DMSO) • b) dilute 8×1:3 (always 10 μl to 20 μl DMSO) in this DMSO dilution row (results in 9 wells with concentrations from 3333.3 μM to 0.51 μM) • c) dilute each concentration 1:47.6 (3.5 μl compound dilution to 163 μl media) • e) add 10 μl of every concentration to 60 μl media in the cell plate resulting in final concentration of DMSO: 0.3% in every well and resulting in 10 final concentration of compounds ranging from 30 μM to 0.0015 μM. • Each compound is tested in triplicate. • Incubate 120 h (5 days) at 37° C., 5% CO2
• Add 30 μl CellTiter-Glo™ Reagent (prepared from CellTiter-Glo™ Buffer and CellTiter-Glo™ Substrate (lyophilized) purchased from Promega) per well, • shake 15 minutes at room temperature • incubate further 45 minutes at room temperature without shaking
• Victor 2 scanning multiwell spectrophotometer (Wallac), Luminescence mode (0.5 sec/read, 477 nm) • Determine IC50 using a non-linear curve fit (XLfit software (ID Business Solution Ltd., Guilford, Surrey, UK))
The compound `COCCN1C(=O)C(C)(C)c2cc3nc(-c4cc(C)[nH]n4)[nH]c3cc21` [Example 1, 5-(2-Methoxy-ethyl)-7,7-dimethyl-2-(5-methyl-1H-pyrazol-3-yl)-5,7-dihydro-3H-imidazo[4,5-f]indol-6-one] came in with an IC50 of 100 to 5000 nM.
`Cc1cc(-c2nc3cc4c(cc3[nH]2)C(C)(C)C(=O)N4CC#N)n[nH]1` [Example 2, [7,7-Dimethyl-2-(5-methyl-1H-pyrazol-3-yl)-6-oxo-6,7-dihydro-1H-imidazo[4,5-f]indol-5-yl]-acetonitrile] displayed a half-maximal inhibitory concentration (IC50) of 100 to 5000 nM.
Consider `C=CCN1C(=O)C(C)(C)c2cc3nc(-c4cc(C)[nH]n4)[nH]c3cc21` [Example 3, 5-Allyl-7,7-dimethyl-2-(5-methyl-1H-pyrazol-3-yl)-5,7-dihydro-3H-imidazo[4,5-f]indol-6-one], for which the IC50 lay within 100 to 5000 nM.
Turning to `CC1(C)C(=O)N(CCCN2CCOCC2)c2cc3nc(-c4cc(C(F)(F)F)n[nH]4)[nH]c3cc21` [Example 4, 7,7-Dimethyl-5-(3-morpholin-4-yl-propyl)-2-(5-trifluoromethyl-2H-pyrazol-3-yl)-5,7-dihydro-1H-imidazo[4,5-f]indol-6-one], the IC50 was 100 to 5000 nM.
On to `Cc1cc(-c2nc3cc4c(cc3[nH]2)C(C)(C)C(=O)N4CCCN2CCOCC2)[nH]n1` [Example 5, 7,7-Dimethyl-2-(5-methyl-2H-pyrazol-3-yl)-5-(3-morpholin-4-yl-propyl)-5,7-dihydro-1H-imidazo[4,5-f]indol-6-one], for which the IC50 was in the range of 100 to 5000 nM.
`CCCc1cc(-c2nc3cc4c(cc3[nH]2)C(C)(C)C(=O)N4CCCN2CCOCC2)[nH]n1` [Example 6, 7,7-Dimethyl-5-(3-morpholin-4-yl-propyl)-2-(5-propyl-2H-pyrazol-3-yl)-5,7-dihydro-1H-imidazo[4,5-f]indol-6-one]: the IC50 stood at 1240 nM.
`Cc1cc(-c2nc3cc4c(cc3[nH]2)N(CC(=O)N2CCOCC2)C(=O)C4(C)C)n[nH]1` [Example 9, 7,7-Dimethyl-2-(5-methyl-1H-pyrazol-3-yl)-5-(2-morpholin-4-yl-2-oxo-ethyl)-5,7-dihydro-3H-imidazo[4,5-f]indol-6-one] came in with an IC50 of 5830 nM.
The same measure, in the same setting: as for `Cc1cc(-c2nc3cc4c(cc3[nH]2)N(CC(=O)Nc2ccc(F)cc2)C(=O)C4(C)C)n[nH]1` [Example 10, 2-[7,7-Dimethyl-2-(5-methyl-1H-pyrazol-3-yl)-6-oxo-6,7-dihydro-3H-imidazo[4,5-f]indol-5-yl]-N-(4-fluoro-phenyl)-acetamide], the figure is 100 to 5000 nM; as for `COc1cc(CNC(=O)CN2C(=O)C(C)(C)c3cc4nc(-c5cc(C)[nH]n5)[nH]c4cc32)cc(OC)c1` [Example 11, N-(3,5-Dimethoxy-benzyl)-2-[7,7-dimethyl-2-(5-methyl-1H-pyrazol-3-yl)-6-oxo-6,7-dihydro-3H-imidazo[4,5-f]indol-5-yl]-acetamide], 100 to 5000 nM.
For `Cc1cc(-c2nc3cc4c(cc3[nH]2)N(CC(=O)NCc2ccc(F)cc2)C(=O)C4(C)C)n[nH]1` [Example 12, 2-[7,7-Dimethyl-2-(5-methyl-1H-pyrazol-3-yl)-6-oxo-6,7-dihydro-3H-imidazo[4,5-f]indol-5-yl]-N-(4-fluoro-benzyl)-acetamide], the IC50 lay within 100 to 5000 nM.
In turn, `CCN(CC)CCN1C(=O)C(C)(C)c2cc3nc(-c4cc(C)[nH]n4)[nH]c3cc21` [Example 13, 5-(2-Diethylamino-ethyl)-7,7-dimethyl-2-(5-methyl-1H-pyrazol-3-yl)-5,7-dihydro-3H-imidazo[4,5-f]indol-6-one] registered an IC50 of 100 to 5000 nM.
For `Cc1cc(-c2nc3cc4c(cc3[nH]2)C(C)(C)C(=O)N4CCN)n[nH]1` [Example 14, 5-(2-Amino-ethyl)-7,7-dimethyl-2-(5-methyl-1H-pyrazol-3-yl)-5,7-dihydro-1H-imidazo[4,5-f]indol-6-one], the IC50 is 5000 to 15000 nM.
